Measurements published in ChEMBL document CHEMBL5034034 (J Med Chem, 2021).
Active and inactive are the calls of the source. The rule behind the calls is not given here.

Experiments:
[1] = target: T1, Proprotein convertase subtilisin/kexin type 9 (Homo sapiens, UniProt Q8NBP7); test: Inhibition of human PCSK9 using Alexa Fluor […] as substrate incubated for 2 hrs by FRET assay
[2] = target: T1, Proprotein convertase subtilisin/kexin type 9; test: Inhibition of human PCSK9 using Alexa Fluor […] as substrate incubated for 2 hrs by FRET plus assay
[3] = target: T1, Proprotein convertase subtilisin/kexin type 9; test: Inhibition of human PCSK9 using Alexa Fluor […] as substrate incubated for 2 hrs by FRET ultra assay
[4] = AUC extrapolated in Wistar Han rat at 5 mg/kg, id measured upto 24 hrs by LC-MS/MS analysis; format: ADME, organism-based; conditions: in vivo, other
[5] = Cmax in Wistar Han rat at 5 mg/kg, id measured upto 24 hrs by LC-MS/MS analysis; format: ADME, organism-based; set-up: dose 5 mg/kg, time <=24; conditions: in vivo
[6] = Half life in cynomolgus monkey at 0.2 mg/kg, iv measured upto 72 hrs by LC-MS/MS analysis; format: ADME, organism-based, Macaca fascicularis; conditions: in vivo
[7] = organism: Sus scrofa; test: Stability of the compound assessed as porcine pepsin-mediated parent compound depletion by measuring parent compound remaining after 1 hr by LC-MS/MS analysis
[8] = Reduction in unbound PCSK9 levels in cynomolgus monkey at 0.2 mg/kg, iv after 24 to 48 hrs; format: functional, Macaca fascicularis; set-up: scale not given: the % may be the effect or the level left; conditions: time 24-48 hrs
[9] = AUC(0 to infinity) in Wistar Han rat at 5 mg/kg, id measured upto 24 hrs by LC-MS/MS analysis; format: ADME, organism-based; set-up: dose 5 mg/kg, time <=24; conditions: in vivo
[10] = Clearance in cynomolgus monkey at 0.2 mg/kg, iv measured upto 72 hrs by LC-MS/MS analysis; format: ADME, organism-based, Macaca fascicularis; conditions: in vivo
[11] = Stability of the compound assessed as bovine pancreatic trypsin-mediated parent compound depletion by measuring parent compound remaining after 1 hr by LC-MS/MS analysis; format: ADME, Bos taurus; conditions: cattle, read-out: Stability
[12] = AUC(0 to infinity) in cynomolgus monkey at 0.2 mg/kg, iv measured upto 72 hrs by LC-MS/MS analysis; format: ADME, organism-based, Macaca fascicularis; set-up: route intravenous, dose 0.2 mg/kg, time <=72; conditions: in vivo
[13] = Unbound clearance in cynomolgus monkey at 0.2 mg/kg, iv measured upto 72 hrs by LC-MS/MS analysis; format: ADME, organism-based, Macaca fascicularis; conditions: in vivo
[14] = Tmax in Wistar Han rat at 5 mg/kg, id measured upto 24 hrs by LC-MS/MS analysis; format: ADME, organism-based; conditions: in vivo
[15] = Bioavailability in Wistar Han rat at 5 mg/kg, id measured upto 24 hrs by LC-MS/MS analysis; format: ADME, organism-based; conditions: in vivo
[16] = Reduction in LDL-cholesterol levels in cynomolgus monkey at 0.2 mg/kg, iv after 48 hrs; format: functional, Macaca fascicularis; set-up: scale not given: the % may be the effect or the level left
[17] = Metabolic stability in cynomolgus monkey whole blood assessed as half life measured upto 6 hrs by LC-MS/MS analysis; format: ADME, tissue-based, Macaca fascicularis
[18] = organism: Sus scrofa; test: Stability of the compound assessed as porcine pancreatic elastase-mediated parent compound depletion by measuring parent compound remaining after 1 hr by LC-MS/MS analysis
[19] = test system: Macaca fascicularis; test: Reduction in LDL-cholesterol levels in cynomolgus monkey at 0.2 mg/kg, iv after 4 weeks; format: functional, organism-based
[20] = Volume of distribution at steady state in cynomolgus monkey at 0.2 mg/kg, iv measured upto 72 hrs by LC-MS/MS analysis; format: ADME, organism-based, Macaca fascicularis; conditions: in vivo, read-out: Vdss
[21] = organism: Bos taurus; test: Stability of the compound assessed as bovine pancreas alpha chymotrypsin-mediated parent compound depletion by measuring parent compound remaining after 1 hr by LC-MS/MS analysis
[22] = test system: Mast cell; test: Induction of rat mast cells degranulation activity at 100 uM incubated for 30 mins; format: functional, tissue-based
[23] = target: T2, Solute carrier organic anion transporter family member 1B1 (Homo sapiens, UniProt Q9Y6L6); test: Inhibition of OATP1B1 (unknown origin) expressed in HEK293 cells assessed as reduction in OATP 1B1-mediated [3H]-pitavastatin uptake preincubated for 30 mins followed by [3H]-pitavastatin addition and measured after 2 mins by liquid scintillation analysis; format: cell-based
T2 sequence (Q9Y6L6 whole entry): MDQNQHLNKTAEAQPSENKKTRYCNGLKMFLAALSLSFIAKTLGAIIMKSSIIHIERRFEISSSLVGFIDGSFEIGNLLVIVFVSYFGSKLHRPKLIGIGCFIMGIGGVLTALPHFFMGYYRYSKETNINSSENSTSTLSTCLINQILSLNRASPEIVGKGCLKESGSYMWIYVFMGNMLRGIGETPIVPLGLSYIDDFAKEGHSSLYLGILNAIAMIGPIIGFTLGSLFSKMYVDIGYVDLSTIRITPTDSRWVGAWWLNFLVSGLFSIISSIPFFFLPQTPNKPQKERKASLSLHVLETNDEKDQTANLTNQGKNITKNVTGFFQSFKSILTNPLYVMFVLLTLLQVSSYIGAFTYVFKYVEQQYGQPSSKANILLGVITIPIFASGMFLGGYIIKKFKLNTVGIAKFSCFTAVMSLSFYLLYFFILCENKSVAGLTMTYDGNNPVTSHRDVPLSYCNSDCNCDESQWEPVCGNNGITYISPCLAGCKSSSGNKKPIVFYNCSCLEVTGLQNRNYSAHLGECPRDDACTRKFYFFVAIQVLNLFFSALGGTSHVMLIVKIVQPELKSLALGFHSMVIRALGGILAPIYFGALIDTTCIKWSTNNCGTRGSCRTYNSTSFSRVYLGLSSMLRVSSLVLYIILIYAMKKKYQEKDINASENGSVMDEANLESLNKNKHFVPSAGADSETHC

[24] = Protein binding in cynomolgus monkey at 0.2 mg/kg, iv measured upto 72 hrs by LC-MS/MS analysis; format: ADME, organism-based, Macaca fascicularis; conditions: in vivo, read-out: PB (converted)
[25] = Unbound clearance in Wistar Han rat at 1 mg/kg, iv measured upto 24 hrs by LC-MS/MS analysis; format: ADME, organism-based; conditions: in vivo
[26] = Protein binding in Wistar Han rat at 1 mg/kg, iv measured upto 24 hrs by LC-MS/MS analysis; format: ADME, organism-based; conditions: in vivo, read-out: PB (converted)
[27] = Half life in Wistar Han rat at 1 mg/kg, iv measured upto 24 hrs by LC-MS/MS analysis; format: ADME, organism-based; conditions: in vivo
[28] = AUC(0 to infinity) in Wistar Han rat at 1 mg/kg, iv measured upto 24 hrs by LC-MS/MS analysis; format: ADME, organism-based; set-up: route intravenous, dose 1 mg/kg, time <=24; conditions: in vivo
[29] = Clearance in Wistar Han rat at 1 mg/kg, iv measured upto 24 hrs by LC-MS/MS analysis; format: ADME, organism-based; conditions: in vivo
[30] = Volume of distribution at steady state in Wistar Han rat at 1 mg/kg, iv measured upto 24 hrs by LC-MS/MS analysis; format: ADME, organism-based; conditions: in vivo, read-out: Vdss

T1 sequence (Q8NBP7 31-152 limits assumed): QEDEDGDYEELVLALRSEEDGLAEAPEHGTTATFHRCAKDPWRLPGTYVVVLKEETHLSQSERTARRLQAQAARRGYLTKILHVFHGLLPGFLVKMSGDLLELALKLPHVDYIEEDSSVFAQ
T1 sequence (Q8NBP7 153-692 limits assumed): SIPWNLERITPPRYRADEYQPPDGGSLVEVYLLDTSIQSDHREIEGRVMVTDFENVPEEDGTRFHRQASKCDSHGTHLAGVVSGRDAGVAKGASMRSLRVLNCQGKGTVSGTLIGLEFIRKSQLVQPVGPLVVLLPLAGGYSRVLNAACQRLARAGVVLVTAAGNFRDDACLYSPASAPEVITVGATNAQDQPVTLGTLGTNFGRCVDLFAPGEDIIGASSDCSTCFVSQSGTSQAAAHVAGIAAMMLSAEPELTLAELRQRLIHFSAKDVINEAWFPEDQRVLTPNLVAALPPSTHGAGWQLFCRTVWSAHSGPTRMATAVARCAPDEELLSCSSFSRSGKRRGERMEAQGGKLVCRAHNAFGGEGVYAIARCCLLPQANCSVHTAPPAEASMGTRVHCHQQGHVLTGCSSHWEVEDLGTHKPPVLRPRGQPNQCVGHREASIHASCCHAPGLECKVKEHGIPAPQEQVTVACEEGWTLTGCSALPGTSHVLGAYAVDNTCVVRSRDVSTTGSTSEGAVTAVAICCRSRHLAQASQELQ

Ki [1] [nM]	Ki [2] [nM]	Ki [3] [nM]	%AUCextra [4] [%]	Cmax [5] [nM]	Stability [7] [%]	AUC(0-inf) [9] [µM·h]	remaining at 1 h [11] [%]	Tmax [14] [h]	bioavailability [15] [%]	Stability [18] [%]	Stability [21] [%]	EC50 [23] [nM]	SMILES	Activity [22]	other results
< 0.129	< 0.01	0.0006	–	–	–	–	–	–	–	–	–	–	COc1ccc(C[C@@H]2NC(=O)[C@H]([C@H](C)O)NC(=O)[C@@H]3[C@@H]4CCN3C(=O)[C@@H]3Cc5cn(c6ccc(F)cc56)Cc5cn(nn5)-c5cc(cc(c5)CSCCC(=O)N[C@@H](C)C(=O)N[C@@H](CNC(=O)CCOCCOCCNC(=O)CCCC[C@@H]5SC[C@H]6NC(=O)N[C@@H]56)C(=O)N[C@@H](Cc5cccc(c5)C/C=C/CO4)C(=O)N3)CSCCNC(=O)[C@]3(C)CCCN3C2=O)cc1	–	–
< 0.129	0.00736	0.00093	3	178	99	0.497	100	0.3	1.4	92.6	95.3	2500	COc1ccc(C[C@@H]2NC(=O)[C@H]([C@@H](C)O)NC(=O)[C@@H]3[C@@H]4CCN3C(=O)[C@@H]3Cc5cn(c6ccc(F)cc56)Cc5cn(nn5)-c5cc(cc(c5)CSCCC(=O)N[C@@H](C)C(=O)N[C@H](CNC(=O)CCOCCOCC[N+](C)(C)C)C(=O)N[C@@H](Cc5cccc(c5)C/C=C/CO4)C(=O)N3)CSCCNC(=O)[C@]3(C)CCCN3C2=O)cc1	inactive	half-life [6]: 10.1 h; Activity [8]: >80%; clearance [10]: 2.7 mL/min/kg; AUC(0-inf) [12]: 0.762 µM·h; CL free [13]: 10.6 mL/min/kg; Activity [16]: >50%; half-life [17]: > 6 h; Activity [19]: inactive; Vd [20]: 1.2 L/kg; fraction unbound at 72 h [24]: 0.256
< 0.129	–	0.00813	19.6	53.3	–	0.0683	–	0	1	–	–	6000	COc1ccc(C[C@@H]2NC(=O)[C@H]([C@@H](C)O)NC(=O)[C@@H]3[C@@H]4CCN3C(=O)[C@@H]3Cc5cn(c6ccc(F)cc56)Cc5cn(nn5)-c5cc(cc(c5)CSCCC(=O)N[C@@H](CNC(=O)CCOCCOCCN)C(=O)N[C@H](C)C(=O)N[C@@H](Cc5cccc(c5)C/C=C/CO4)C(=O)N3)CSCCNC(=O)[C@]3(C)CCCN3C2=O)cc1	inactive	–

The next lines start with the compound.

SMILES	Ki [1] [nM]	Ki [2] [nM]	Ki [3] [nM]	%AUCextra [4] [%]	Cmax [5] [nM]	Stability [7] [%]	AUC(0-inf) [9] [µM·h]	remaining at 1 h [11] [%]	Tmax [14] [h]	bioavailability [15] [%]	Stability [18] [%]	Stability [21] [%]	EC50 [23] [nM]	Activity [22]	other results
COc1ccc(C[C@@H]2NC(=O)[C@H]([C@@H](C)O)NC(=O)[C@@H]3[C@@H]4CCN3C(=O)[C@H](Cc3c[nH]c5ccc(F)cc35)NC(=O)[C@H](Cc3cccc(c3)C/C=C/CO4)NC(=O)[C@@H](C)NC(=O)[C@H](C)NC(=O)CCSCc3cccc(c3)CSCCNC(=O)[C@]3(C)CCCN3C2=O)cc1	0.43	0.25	–	–	–	–	–	–	–	–	–	–	–	–	–
COc1ccc(C[C@@H]2NC(=O)[C@H]([C@@H](C)O)NC(=O)[C@@H]3[C@@H]4CCN3C(=O)[C@@H]3Cc5cn(c6ccc(F)cc56)Cc5cn(nn5)-c5cc(cc(c5)CSCCC(=O)N[C@@H](CN)C(=O)N[C@H](C)C(=O)N[C@@H](Cc5cccc(c5)C/C=C\CO4)C(=O)N3)CSCCNC(=O)[C@]3(C)CCCN3C2=O)cc1	–	0.037	–	–	–	–	–	–	–	–	–	–	–	inactive	–
COc1ccc(C[C@@H]2NC(=O)[C@H]([C@@H](C)O)NC(=O)[C@@H]3[C@@H]4CCN3C(=O)[C@@H]3Cc5cn(c6ccc(F)cc56)Cc5cn(nn5)-c5cc(cc(c5)CSCCC(=O)N[C@@H](CN)C(=O)N[C@H](C)C(=O)N[C@@H](Cc5cccc(c5)C/C=C/CO4)C(=O)N3)CSCCNC(=O)[C@]3(C)CCCN3C2=O)cc1	< 0.129	0.00826	0.0094	23.6	12.4	100	0.0215	100	0.25	0.45	96.5	90	600	inactive	CL free [25]: 85 mL/min/kg; fraction unbound at 24 h [26]: 0.144; half-life [27]: 5.9 h; AUC(0-inf) [28]: 0.964 µM·h; clearance [29]: 12.3 mL/min/kg; Vd [30]: 3 L/kg
